Source: ChEMBL document CHEMBL3244391, “Antiviral activity of aliphatic nucleoside analogues: structure-function relationship” (1979)

Tested on: Vaccinia virus
Assay: Antiviral activity against Vaccinia virus infected in rabbit primary kidney cells assessed as inhibition of viral cytopathogenicity after 3 days
Assay type: functional, Orthopoxvirus vaccinia

Row | Structure (SMILES) | MID [µg/mL]
1 | OC[C@@H](O)Cn1cnc2c(O)ncnc21 | >400
2 | Nc1ncnc2c1nc(O)n2CC(O)CO (racemic) | >400
3 | O=c1[nH]c(=O)n([C@H]2C[C@H](O)[C@@H](CO)O2)cc1I [IDOXURIDINE] | 0.1
4 | CCC(=O)OCC(Cn1cnc2c(N)ncnc21)OC(=O)CC (racemic) | >400
5 | Nc1ncnc2c1ncn2CC[C@H](O)CO | 200
6 | Cc1c[nH]c(=O)n(C[C@H](O)CO)c1=O | >400
7 | Nc1ncnc2c1ncn2CCO | >400
8 | Nc1ncnc2c1ncn2CCC(O)CCO (racemic) | >400
9 | CC(C)(C)C(=O)OCC(O)Cn1cnc2c(N)ncnc21 (racemic) | 300
10 | Nc1ncnc2c1ncn2C[C@@H](O)CO | >400
11 | Nc1ncnc2c1ncn2[C@@H]1O[C@H](CO)[C@@H](O)[C@@H]1O [VIDARABINE] | 0.3
12 | OCC(O)Cn1cnc2c(S)ncnc21 (racemic) | >400
13 | COC(CO)Cn1cnc2c(N)ncnc21 (racemic) | >400
14 | Nc1ncnc2c1ncn2C[C@H](O)[C@@H](O)CO | >400
15 | CCCCCCCCCCCCCCCC(=O)OCC(O)Cn1cnc2c(N)ncnc21 (racemic) | 100
16 | Nc1ncnc2c1ncn2C[C@H](O)[C@H](O)CO | 200
17 | Nc1ncnc2c1ncn2C[C@@H](O)[C@H](O)CO | >400
18 | NCCn1cnc2c(N)ncnc21 | >400
19 | Nc1ncnc2c1ncn2CCCO | 300

Row | Structure (SMILES) | MID [µg/mL]
20 | Nc1nc(N)c2ncn(CC(O)CO)c2n1 (racemic) | >400
21 | Nc1c2ncn(CC(O)CO)c2nc[n+]1[O-] (racemic) | >400
22 | Nc1ccn(CC(O)CO)c(=O)n1 (racemic) | >400
23 | Nc1ncnc2c1ncn2C(CO)CO | >400
24 | CN(C)c1ncnc2c1ncn2CC(O)CO (racemic) | >400
25 | Nc1ccn([C@@H]2O[C@H](CO)[C@@H](O)[C@@H]2O)c(=O)n1 [CYTARABINE] | 0.02
26 | [N-]=[N+]=NCC(O)Cn1cnc2c(N)ncnc21 (racemic) | >400
27 | Nc1ncnc2c1ncn2CC(O)C(O)CO (racemic) | 400
28 | Nc1ncnc2c1ncn2CC(O)CO (racemic) | 40
29 | O=c1ccn(CCC(O)CCO)c(=O)[nH]1 (racemic) | >400
30 | [N-]=[N+]=NCC(Cn1cnc2c(N)ncnc21)N=[N+]=[N-] (racemic) | 150
31 | Cc1cn(C[C@@H](O)CO)c(=O)[nH]c1=O | >400
32 | O=c1ccn(C[C@H](O)CO)c(=O)[nH]1 | >400
33 | NCC(N)Cn1cnc2c(N)ncnc21 (racemic) | >400
34 | Nc1ncnc2c1nc(S)n2CC(O)CO (racemic) | >400
35 | O=c1ccn(CC[C@H](O)CO)c(=O)[nH]1 | >400
36 | Nc1ncnc2c1ncn2C[C@H](O)CO [(S)-DHPA] | 10
37 | COCC(Cn1cnc2c(N)ncnc21)OC (racemic) | >400
38 | O=c1cnn(CC(O)CO)c(=O)[nH]1 (racemic) | >400

Row | Structure (SMILES) | MID [µg/mL]
39 | O=c1ccn(C[C@@H](O)[C@H](O)CO)c(=O)[nH]1 | >400
40 | Cc1cn(C[C@H](O)CO)c(=O)[nH]c1=O | >400
41 | Nc1ncnc2c1nc(Br)n2CC(O)CO (racemic) | >200
42 | CNc1ncnc2c1ncn2CC(O)CO (racemic) | >400
43 | Nc1nc(O)c2c(ncn2CC(O)CO)n1 (racemic) | >400
44 | C[C@@H](O)[C@@H](O)Cn1cnc2c(N)ncnc21 (racemic) | 150
45 | CC(O)Cn1cnc2c(N)ncnc21 (racemic) | >400
46 | CC(C)(C)C(=O)OCC(Cn1cnc2c(N)ncnc21)OC(=O)C(C)(C)C (racemic) | 300
47 | CSc1nc(N)c2ncn(CC(O)CO)c2n1 (racemic) | 400
48 | O=c1ccn(C[C@H](O)[C@H](O)CO)c(=O)[nH]1 (racemic) | >400
49 | Nc1ncnc2c1ncn2CCC(O)CO (racemic) | 100
50 | Nc1nc2c(ncn2CC(O)CO)c(=O)[nH]1 (racemic) | >400
51 | CC(=O)OC[C@H](Cn1cnc2c(N)ncnc21)OC(C)=O | >400
52 | O=c1ccn(CC(O)C(O)CO)c(=O)[nH]1 (racemic) | >400
53 | Nc1ncnc2c1ncn2C[C@@H](O)[C@@H](O)CO | >400
54 | COCC(O)Cn1cnc2c(N)ncnc21 (racemic) | >400
55 | NCC(O)Cn1cnc2c(N)ncnc21 (racemic) | 400
56 | Nc1ncnc2c1ncn2CC(N)CO (racemic) | >400
